The values that follow come from patent US20250250230A1, “HETEROCYCLIC COMPOUND” (TAKEDA PHARMACEUTICAL COMPANY LIMITED, priority 2022, published 2025).

SMILES strings stand for the structures.

The assay addresses T1, human orexin type 2 receptor (Homo sapiens, UniProt O43614).
T1 construct: expressed in transfected cells
T1 sequence (O43614 1-444): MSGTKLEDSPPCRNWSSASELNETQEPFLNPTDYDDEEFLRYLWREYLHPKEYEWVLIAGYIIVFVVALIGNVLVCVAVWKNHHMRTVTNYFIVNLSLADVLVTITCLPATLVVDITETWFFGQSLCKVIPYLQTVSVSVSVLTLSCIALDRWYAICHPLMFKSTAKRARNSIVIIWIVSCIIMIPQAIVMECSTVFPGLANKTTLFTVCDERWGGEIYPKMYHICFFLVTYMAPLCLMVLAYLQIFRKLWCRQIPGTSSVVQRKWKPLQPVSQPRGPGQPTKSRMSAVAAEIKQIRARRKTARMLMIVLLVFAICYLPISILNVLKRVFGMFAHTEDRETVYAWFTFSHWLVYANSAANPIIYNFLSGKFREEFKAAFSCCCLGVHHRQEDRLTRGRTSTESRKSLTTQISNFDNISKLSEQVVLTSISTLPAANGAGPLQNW
Kind of assay: Measurement of orexin type 2 receptor agonist activity (calcium fluorescence, Fluo-4 AM, FDSS). Format: cell-based. Conditions: test compound 3 μM; CHO cells expressing human OX2 receptor; DMSO = 0%, orexin A (human) = 100%. A digest of the protocol:
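Agonist response scaled between vehicle (0%) and human orexin A at 10 nM final (100%), from 2-min kinetic Fluo-4 fluorescence reads. Stable hOX2R CHO-K1 clone, dye-loaded in HBSS/20 mM HEPES/0.1% BSA with 1.25 mM probenecid before compound addition.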

Consider `CCC(NS(C)(=O)=O)[C@@H]1CCN1C(=O)[C@@H]1C[C@@]1(F)c1ccccc1-c1c(F)cccc1F` (stereo partly drawn) [Example 379, N-[(1R)-1-{(2S)-1-[(1S,2S)-2-(2′,6′-difluoro[1,1′-biphenyl]-2-yl)-2-fluorocyclopropane-1-carbonyl]azetidin-2-yl}propyl]methanesulfonamide, or N-[(1S)-1-{(2S)-1-[(1S,2S)-2-(2′,6′-difluoro[1,1′-biphenyl]-2-yl)-2-fluorocyclopropane-1-carbonyl]azetidin-2-yl}propyl]methanesulfonamide], for which the “OX2R agonist activity (3 μM, %)” value was found to be 86%. As for `CC[C@@H]1CN(C(=O)[C@@H]2C[C@@]2(F)c2ccccc2-c2c(F)cccc2F)[C@@H]1CNS(C)(=O)=O` [Example 380, N-({(2S,3R)-1-[(1S,2S)-2-(2′,6′-difluoro[1,1′-biphenyl]-2-yl)-2-fluorocyclopropane-1-carbonyl]-3-ethylazetidin-2-yl}methyl)methanesulfonamide], the “OX2R agonist activity (3 μM, %)” value was determined as 92%.

Consider `CC[C@@H]1CN(C(=O)[C@@H]2C[C@@]2(F)c2ccccc2-c2c(F)cccc2F)[C@H]1CNS(C)(=O)=O` [Example 381, N-({(2R,3R)-1-[(1S,2S)-2-(2′,6′-difluoro[1,1′-biphenyl]-2-yl)-2-fluorocyclopropane-1-carbonyl]-3-ethylazetidin-2-yl}methyl)methylsulfonamide], for which the “OX2R agonist activity (3 μM, %)” value amounted to 90%. To `CCS(=O)(=O)NC[C@@H]1[C@@H](O)CN1C(=O)[C@@H]1C[C@@]1(F)c1ccccc1-c1c(F)cccc1F` [Example 382, N-({(2R,3S)-1-[(1S,2S)-2-(2′,6′-difluoro[1,1′-biphenyl]-2-yl)-2-fluorocyclopropane-1-carbonyl]-3-hydroxyazetidin-2-yl}methyl)ethanesulfonamide] belongs 96%; to `CO[C@@H]1CN(C(=O)[C@@H]2C[C@@]2(F)c2ccccc2-c2c(F)cccc2F)[C@@H]1CNS(C)(=O)=O` [Example 383, N-({(2R,3R)-1-[(1S,2S)-2-(2′,6′-difluoro[1,1′-biphenyl]-2-yl)-2-fluorocyclopropane-1-carbonyl]-3-methoxyazetidin-2-yl}methyl)methanesulfonamide], 72%.

As to `CS(=O)(=O)NC[C@@H]1[C@H](CO)CN1C(=O)[C@@H]1C[C@@]1(F)c1ccccc1-c1c(F)cccc1F` [Example 384, N-{[(2S,3R)-1-[(1S,2S)-2-(2′,6′-difluoro[1,1′-biphenyl]-2-yl)-2-fluorocyclopropane-1-carbonyl]-3-(hydroxymethyl)azetidin-2-yl]methyl}methanesulfonamide], the “OX2R agonist activity (3 μM, %)” value came to 99%. For `CS(=O)(=O)N[C@@H](CO)C1CCN1C(=O)[C@@H]1C[C@@]1(F)c1ccccc1-c1c(F)cccc1F` (stereo partly drawn) [Example 385, N-[(1R)-1-{(2R)-1-[(1S,2S)-2-(2′,6′-difluoro[1,1′-biphenyl]-2-yl)-2-fluorocyclopropane-1-carbonyl]azetidin-2-yl}-2-hydroxyethyl]methanesulfonamide, or N-[(1R)-1-{(2S)-1-[(1S,2S)-2-(2′,6′-difluoro[1,1′-biphenyl]-2-yl)-2-fluorocyclopropane-1-carbonyl]azetidin-2-yl}-2-hydroxyethyl]methanesulfonamide] the value was 95%; for `C[C@@H]1CN(C(=O)[C@@H]2C[C@@]2(F)c2ccc(F)cc2-c2c(F)cccc2F)[C@@H]1CNS(C)(=O)=O` [Example 386, N-({(2S,3R)-1-[(1S,2S)-2-fluoro-2-(2′,5,6′-trifluoro[1,1′-biphenyl]-2-yl)cyclopropane-1-carbonyl]-3-methylazetidin-2-yl}methyl)methanesulfonamide], 98%.

Regarding `C[C@H](NS(=O)(=O)C1CC1)[C@@H]1CCN1C(=O)[C@@H]1C[C@@]1(F)c1ccccc1-c1c(F)cccc1F` [Example 387, N-[(1S)-1-{(2S)-1-[(1S,2S)-2-(2′,6′-difluoro[1,1′-biphenyl]-2-yl)-2-fluorocyclopropane-1-carbonyl]azetidin-2-yl}ethyl]cyclopropanesulfonamide], the “OX2R agonist activity (3 μM, %)” value worked out at 99%. For `C[C@H](NS(=O)(=O)C1(C)CC1)[C@@H]1CCN1C(=O)[C@@H]1C[C@@]1(F)c1ccccc1-c1c(F)cccc1F` [Example 388, N-[(1S)-1-{(2S)-1-[(1S,2S)-2-(2′,6′-difluoro[1,1′-biphenyl]-2-yl)-2-fluorocyclopropane-1-carbonyl]azetidin-2-yl}ethyl]-1-methylcyclopropane-1-sulfonamide], the “OX2R agonist activity (3 μM, %)” value was determined as 98%. As for `CC(C)S(=O)(=O)N[C@@H](C)[C@@H]1CCN1C(=O)[C@@H]1C[C@@]1(F)c1ccccc1-c1c(F)cccc1F` [Example 389, N-[(1S)-1-{(2S)-1-[(1S,2S)-2-(2′,6′-difluoro[1,1′-biphenyl]-2-yl)-2-fluorocyclopropane-1-carbonyl]azetidin-2-yl}ethyl]propane-2-sulfonamide], the “OX2R agonist activity (3 μM, %)” value is 97%. For `CS(=O)(=O)NC[C@@H]1[C@H](F)CN1C(=O)[C@@H]1C[C@@]1(F)c1ccccc1-c1c(F)cccc1F` [Example 390, N-({(2R,3R)-1-[(1S,2S)-2-(2′,6′-difluoro[1,1′-biphenyl]-2-yl)-2-fluorocyclopropane-1-carbonyl]-3-fluoroazetidin-2-yl}methyl)methanesulfonamide] the value was 98%; for `CS(=O)(=O)NC[C@H]1[C@H](CO)CN1C(=O)[C@@H]1C[C@@]1(F)c1ccccc1-c1c(F)cccc1F` [Example 391, N-{[(2R,3R)-1-[(1S,2S)-2-(2′,6′-difluoro[1,1′-biphenyl]-2-yl)-2-fluorocyclopropane-1-carbonyl]-3-(hydroxymethyl)azetidin-2-yl]methyl}methanesulfonamide], 97%. Consider `CC(NS(C)(=O)=O)C12CC(C1)N(C(=O)[C@@H]1C[C@@]1(F)c1ccccc1-c1c(F)cccc1F)C2` (stereo partly drawn) [Example 392, N-[(1R)-1-{2-[(1S,2S)-2-(2′,6′-difluoro[1,1′-biphenyl]-2-yl)-2-fluorocyclopropane-1-carbonyl]-2-azabicyclo[2.1.1]hexan-4-yl}ethyl]methanesulfonamide, or N-[(1S)-1-{2-[(1S,2S)-2-(2′,6′-difluoro[1,1′-biphenyl]-2-yl)-2-fluorocyclopropane-1-carbonyl]-2-azabicyclo[2.1.1]hexan-4-yl}ethyl]methanesulfonamide], for which the “OX2R agonist activity (3 μM, %)” value is recorded as 68%. In the case of `CS(=O)(=O)NC(C1CC1)[C@@H]1CCN1C(=O)[C@@H]1C[C@@]1(F)c1ccccc1-c1c(F)cccc1F` (stereo partly drawn) [Example 394, N-[(R)-cyclopropyl{(2S)-1-[(1S,2S)-2-(2′,6′-difluoro[1,1′-biphenyl]-2-yl)-2-fluorocyclopropane-1-carbonyl]azetidin-2-yl}methyl]methanesulfonamide, or N-[(S)-cyclopropyl{(2S)-1-[(1S,2S)-2-(2′,6′-difluoro[1,1′-biphenyl]-2-yl)-2-fluorocyclopropane-1-carbonyl]azetidin-2-yl}methyl]methanesulfonamide], the “OX2R agonist activity (3 μM, %)” value is given as 106%.

With `C[C@@H]1CN(C(=O)C2CC2(F)c2c(F)cccc2-c2c(F)cccc2F)[C@@H]1CNS(C)(=O)=O` (stereo partly drawn) [Example 395, N-({(2S,3R)-1-[(1R,2R)-2-fluoro-2-(2′,3,6′-trifluoro[1,1′-biphenyl]-2-yl)cyclopropane-1-carbonyl]-3-methylazetidin-2-yl}methyl)methanesulfonamide, or N-({(2S,3R)-1-[(1S,2S)-2-fluoro-2-(2′,3,6′-trifluoro[1,1′-biphenyl]-2-yl)cyclopropane-1-carbonyl]-3-methylazetidin-2-yl}methyl)methanesulfonamide], the “OX2R agonist activity (3 μM, %)” value stood at 99%.

As for `Cc1ccc(C2(F)CC2C(=O)N2C[C@@H](C)[C@H]2CNS(C)(=O)=O)c(-c2c(F)cccc2F)c1` (stereo partly drawn) [Example 396, N-({(2S,3R)-1-[(1R,2R)-2-(2′,6′-difluoro-5-methyl[1,1′-biphenyl]-2-yl)-2-fluorocyclopropane-1-carbonyl]-3-methylazetidin-2-yl}methyl)methanesulfonamide, or N-({(2S,3R)-1-[(1S,2S)-2-(2′,6′-difluoro-5-methyl[1,1′-biphenyl]-2-yl)-2-fluorocyclopropane-1-carbonyl]-3-methylazetidin-2-yl}methyl)methanesulfonamide], the “OX2R agonist activity (3 μM, %)” value was 104%. To `COC[C@@H]1CN(C(=O)[C@@H]2C[C@@]2(F)c2ccccc2-c2c(F)cccc2F)[C@@H]1CNS(C)(=O)=O` [Example 397, N-{[(2S,3R)-1-[(1S,2S)-2-(2′,6′-difluoro[1,1′-biphenyl]-2-yl)-2-fluorocyclopropane-1-carbonyl]-3-(methoxymethyl)azetidin-2-yl]methyl}methanesulfonamide] belongs 84%. Turning to `CS(=O)(=O)NC[C@@H]1[C@H](CF)CN1C(=O)[C@@H]1C[C@@]1(F)c1ccccc1-c1c(F)cccc1F` [Example 398, N-{[(2S,3R)-1-[(1S,2S)-2-(2′,6′-difluoro[1,1′-biphenyl]-2-yl)-2-fluorocyclopropane-1-carbonyl]-3-(fluoromethyl)azetidin-2-yl]methyl}methanesulfonamide], the “OX2R agonist activity (3 μM, %)” value turned out to be 97%.
